Here are results for three compounds from patent EP4692088A1, “COMPOUND ACTING AS WRN HELICASE INHIBITOR” (SHANGHAI JEYOU PHARMACEUTICAL CO., LTD., priority 2023, dated 2024).

For one data set, the system named is SW48 cells. Kind of data set: Cell proliferation assay (CellTiter-Glo), SW48. The format is cell-based. Particulars: Homo sapiens, SW48, 120 h, SW-48, 5 days incubation. On the procedure:
(§1) SW48 cells were plated at a density of 1,500 cells/well, and LoVo, HCT116, and SW620 cells were plated at a density of 800 cells/well in a 96-well cell culture plate, and cultured in a 37°C incubator overnight. The test compounds, which were gradient-diluted with DMSO, were added, and after incubation for 5 days, cell viability was detected using a CellTiter-Glo kit. The CellTiter-Glo reagent was equilibrated to room temperature, and an appropriate amount was added to the cell plate, followed by shaking at room temperature for 12 min. The luminescence signal was detected using a microplate reader.
(§2) The luminescence signal values of the DMSO-treated wells and cell-free wells were used as negative and positive controls, respectively, to calculate the inhibition rate of compound on cell proliferation. The concentration-inhibition curve was fitted using the "log(inhibitor) vs. normalized response -- Variable slope" equation in GraphPad Prism 8 software to obtain the IC50. [formula]

A further data set concerns SW620 cells. Kind of data set: Cell proliferation assay (CellTiter-Glo), SW620. It counts as cell-based. Particulars: Homo sapiens, 120 h, SW-620 (MSS), 5 days incubation. On the procedure: as §1, §2
On the technique in general: ATP-based viability assays read luminescence as a measure of living cells.

The next data set deals with HCT116. Put plainly: γH2AX induction assay (HTRF Phospho-H2AX), HCT116. The format is cell-based. Particulars: Homo sapiens, HCT-116, incubated for 2-3 days, read-out: γ-H2AX induction HCT-116 (EC50 nM). The procedure: SW48, HCT116, and SW620 cells were plated into 96-well cell culture plates at a density of 15,000-25,000 cells/well and cultured overnight in a 37°C incubator. The test compounds, which were gradient-diluted with DMSO, were added and incubated for 2-3 days. The γ-H2AX level was detected using HTRF Phospho-H2AX (SER139) Detection Kits. The 4× Lysis buffer and Detection buffer were equilibrated to room temperature for later use. The 4× Lysis buffer was diluted to 1× Lysis buffer using ddH2O. After the medium was aspirated, 50 µL of 1× Lysis buffer was added to each well and shaken at room temperature for 30 minutes for lysis. 16 µL of lysate was transferred to a 384-well plate, followed by the addition of 4 µL of diluted antibody mixture (Phospho-H2AX d2 antibody and Phospho-H2AX Eu Cryptate antibody were each diluted 20-fold using Detection buffer, and the two antibodies were then mixed uniformly at a 1:1 volume ratio). The mixture was incubated at room temperature for 2-24 h, and fluorescence signals at […] and 615 nm were detected using a microplate reader. Parallel treatment plates were simultaneously set up in the experiment, and cell viability was detected using the CellTiter-Glo kit. The CellTiter-Glo reagent was equilibrated to room temperature, and an appropriate amount was added to the cell plate, followed by shaking at room temperature for 12 min. The luminescence signal was detected using a microplate reader.
The fluorescence signal values of DMSO-treated wells and positive drug-treated wells were used as negative and positive controls, respectively, to calculate the level of γ-H2AX induced by the compounds. The concentration-induction rate curve was fitted using the "log(agonist) vs. response -- Variable slope (four parameters)" equation in GraphPad Prism 8 software to obtain the EC50. [formula] [formula]
(In general: Time-resolved FRET reads energy transfer from a long-lived donor to a nearby acceptor.)

The nature of data set [1]: Pharmacokinetic test in mice. The format is in vivo. Particulars: mouse; CD-1 mice, male, oral gavage, 10 mg/kg, plasma. On the procedure:
CD-1 mice were taken as test animals. Example 4, Example 22, and Comparative Example HRO761 were given by gavage. The drug concentrations in mouse plasma at different time points were determined by LC-MS/MS to investigate the pharmacokinetic characteristics of the compounds of the present disclosure in mice.
• Experimental drugs: Example 4, Example 22, and Comparative Example HRO761; • Animals: CD-1 mice, male, 24-25 g, purchased from Shanghai Jihui Laboratory Animal Care Co.,Ltd.
An appropriate amount of Example 4, Example 22, and Comparative Example HRO761 was weighed and sequentially added to an appropriate amount of dimethyl sulfoxide, solutol, and saline (final solvent: 5% DMSO + 10% solutol + 85% saline). The mixture was vortexed and sonicated to prepare a 1.0 mg/mL dosing solution.
Three mice in gavage groups of Example 4, Example 22, and Comparative Example HRO761 were administered by oral gavage after overnight fasting (dose: 10 mg/kg, administration volume: 10 mL/kg), and the mice were fed 4 h after administration.
0.04 mL of blood was collected from the animals before administration and at 0.083 h, 0.25 h, 0.5 h, 1 h, 2 h, 4 h, 6 h, 8 h, and 24 h after administration, and anticoagulated with sodium heparin. Blood samples were placed on ice after collection, and plasma was separated by centrifugation (centrifugation conditions: 8000 rpm, 5 min). The collected plasma was stored at -80°C before analysis.
LC-MS/MS was used to determine the content of the test compound in mouse plasma after intragastric administration.
Based on the calculated concentrations of the compounds in plasma at different time points, the pharmacokinetic parameters of Example 4, Example 22, and Comparative Example HRO761 in mice were calculated using winnonlin software. The pharmacokinetic parameters of Example 4, Example 22, and Comparative Example HRO761 of the present disclosure are shown in Table 13.

Data set [2] is described as follows: Pharmacokinetic test in rats. Particulars: rat; SD rats, male, oral gavage, 10 mg/kg, plasma. It counts as in vivo. The procedure:
SD rats were taken as test animals. Example 4, Example 15, and Comparative Example HRO761 were given by gavage. The drug concentrations in rat plasma at different time points were determined by LC-MS/MS to investigate the pharmacokinetic characteristics of Example 4, Example 15, and Comparative Example HRO761 in rats.
• Experimental drugs: Example 4, Example 15, and Comparative Example HRO761; • Animals: SD rats, male, 240-260 g, purchased from Shanghai Jihui Laboratory Animal Care Co.,Ltd.
An appropriate amount of Example 4, Example 15, and Comparative Example HRO761 was weighed and added to an appropriate amount of dimethyl sulfoxide, solutol, and saline (final solvent: 5% DMSO + 10% solutol + 85% saline). The mixture was vortexed and sonicated to prepare a 1.0 mg/mL dosing solution.
The rats in gavage groups (3 rats per group) of Example 4, Example 15, and Comparative Example HRO761 were administered by oral gavage after overnight fasting (dose: 10 mg/kg, administration volume: 10 mL/kg), and the rats were fed 4 h after administration.
0.2 mL of blood was collected from the animals before administration and at 0.083 h, 0.25 h, 0.5 h, 1 h, 2 h, 4 h, 6 h, 8 h, and 24 h after administration, and anticoagulated with sodium heparin. Blood samples were placed on ice after collection, and plasma was separated by centrifugation (centrifugation conditions: 8000 rpm, 5 min). The collected plasma was stored at -80°C before analysis.
The contents of Example 4, Example 15, and Comparative Example HRO761 in rat plasma after oral administration were determined by LC-MS/MS.
Based on the calculated concentrations of the compounds in plasma at different time points, the pharmacokinetic parameters of Example 4, Example 15, and Comparative Example HRO761 in rats were calculated using winnonlin software. The pharmacokinetic parameters of Example 4, Example 15, and Comparative Example HRO761 of the present disclosure are shown in Table 14.

Take `CCc1c(N2CCN(C(=O)c3ncnc(C)c3O)CC2)c(=O)c2nn(C3=CCOCC3)nc2n1CC(=O)Nc1cc(F)c(Cl)cc1Cl` [Example 22]: the IC50 (usually the concentration that gives 50% inhibition) in the data set on SW48 cells is 70.7 nM; with SW620 cells, more than 25000 nM. Also, the EC50 – broadly, the concentration that produces a half-maximal response – with HCT116 stood at 168 nM. In addition, the AUC(0-inf) (usually the area under the concentration-time curve extrapolated to infinity) in data set [1] was determined as 83400 ng·h/mL. Besides, the maximum concentration (Cmax) – broadly, the maximum level reached in the sampled fluid or tissue – in data set [1] is 24600 ng/mL.
Regarding `CCc1c(N2CCN(C(=O)c3ncnc(C)c3O)CC2)c(=O)c2nn(C3=CCOCC3)nc2n1CC(=O)Nc1ccc(C(F)(F)F)cc1Cl` [Example 4], the results for the IC50 in the data set with SW48 cells and with SW620 cells were 37.2 nM and more than 25000 nM, respectively. Further, in the data set on HCT116, the EC50 turned out to be 128 nM. In addition, the AUC(0-inf) is 51500 ng·h/mL in data set [1] and 170000 ng·h/mL in data set [2]. The values for the Cmax in data set [1] and in data set [2] were 24800 ng/mL and 19200 ng/mL, respectively.
For the compound `CCc1c(N2CCN(C(=O)c3ncnc(C)c3O)CC2)c(=O)c2nn(C3=CCOCC3)nc2n1CC(=O)Nc1cc(F)c(C(F)(F)F)cc1Cl` [Example 15], the IC50 in the data set with SW48 cells is 35.4 nM; with SW620 cells, more than 25000 nM. Besides, the EC50 with HCT116 came to 97.1 nM. In data set [2], this compound returned an AUC(0-inf) of 46400 ng·h/mL. The compound further came in with a Cmax in data set [2] of 9020 ng/mL.
